{"source": "paper PMC2424174", "about": "“Suppression of Tumor Growth and Angiogenesis by a Specific Antagonist of the Cell-Surface Expressed Nucleolin” (PLoS ONE, 2008)", "key": {"[1]": {"system": "MDA-MB-231 cells", "experiment": "Colony formation in soft agar, MDA-MB-231", "format": "cell-based, human", "experimental": "Figure 4 HB-19 inhibits colony formation in soft agar by tumor cell lines. (A) MDA-MB-231 cells in culture medium were seeded in triplicate in the absence (histogram C) or presence of 0.1, 0.5 and 1 of µM HB-19, or 0.1 µM of the anti-nucleolin mAb MS-3 or control IgG, or 10 µM bisphosphonate (BisP). (B) Various tumor cell lines (as indicated) in culture medium were seeded in triplicate in the absence (histogram Control) or presence of 5 µM HB-19. After 10–21 days, colonies with diameters greater than 50 µm were scored as positive. Statistical significance: *0.01<p<[…], **p<0.01, ***p<0.001.\nCarcinoma cells (2×10^4) were mixed in 0.35% top agar, diluted in complete medium (DMEM containing 10% FBS) in the absence or presence of HB-19, and plated onto 0.8% bottom agar into 12-well plates. Cells were treated twice a week during 10 to 21 days. Colonies with diameters greater than 50 µm were scored as positive using a phase contrast microscope equipped with a measuring grid at magnification 100× [45]. The number of colonies was determined by analyzing 5 fields/well from 3 wells and the test was repeated at least twice."}, "[2]": {"system": "HUVECs", "experiment": "FACScan competition of HB-19/Btn binding to HUVECs", "design": "species or system human", "conditions": "1 µM HB-19/Btn, 4 °C, competitor 50 µM", "experimental": "Figure 3 Specific binding and entry of HB-19 in endothelial cells. (A) HB-19/Btn forms a stable complex with nucleolin expressed on the surface of HUVECs. Cells were incubated (45 min, 20°C) with 0, 1, 2, 4, 8 and 12 µM of HB-19/Btn before preparation of surface/cytoplasmic and nuclear extracts and recovery of surface nucleolin from the surface/cytoplasmic extracts as in Figure 2A. Material extracted from 2×10^7 and 2×10^6 cells was analyzed in panels Surface and Surface/Cytoplasm or Nucleus, respectively. Immunoblotting was with the anti-nucleolin mAb D3. (B) The specific binding of HB-19/Btn to HUVECs. The binding of 1 µM HB-19/Btn was studied at 4 °C by FACScan analysis. To show the specificity of binding, the reaction was carried out in the absence or presence of 50 µM HB-19, F3, or 9Arg peptides. The ordinate gives the relative cell number, whereas the abscissa gives the relative fluorescence intensity. (C) HB-19 entry in HUVECs. Cells were incubated with 5 µM of HB-19/Btn (1 hour, 37°C) before fixation in PFA (for surface binding) or PFA-Triton (for entry), respectively. Cells were then successively incubated with rabbit anti-biotin antibodies and goat Texas Red-conjugated anti-rabbit IgG, and processed for confocal microscopy. The scans of cells toward the middle cell layer are presented (with the DAPI stained nuclei)."}, "[3]": {"system": "chick embryo chorioallantoic membrane", "experiment": "Chick embryo chorioallantoic membrane (CAM) angiogenesis assay", "format": "in vivo, chicken", "conditions": "48 h; for relative percent inhibition of angiogenesis: total vessel length vs control, P<0.001, 15–20 eggs", "experimental": "Figure 7 Inhibition of in vivo angiogenesis by HB-19 in chick embryo chorioallantoic membrane (CAM) assay. Macroscopic observation of the angiogenic response induced by gelatin sponges (1 cm^2), soaked with 40 µl of PBS (Control) or 40 µl PBS containing HB-19 at concentrations of 10, 20 and 50 µM (corresponding to 0.4, 0.8 and 2 nmols of HB-19, respectively). After 48 h, CAMs were fixed and excised from the eggs . Photographs were taken and the total length of the vessels was measured using the Image PC image-analysis software (Scion Corporation, USA)[48]. Each sample was tested three times using 15–20 eggs for each data point. The relative percent inhibition (P<0.001) of angiogenesis compared to the control was 27, 36 and 51% in the presence of 0.4, 0.8 and 2 nmols of HB-19, respectively.\nLeghorn fertilized eggs (Pindos, Greece) were incubated for 4 days at 37°C. A window was then opened on the eggshell, exposing the CAM. The window was covered with sterile tape, and the eggs were returned to the incubator. On day 9 of embryo development, 20 µl of distilled water alone as a control or containing HB-19 was applied on a 1-cm2 area of the CAM inside a silicon ring. After 48 hours of incubation at 37°C, CAMs were fixed in situ with saline-buffered formalin, excised from the eggs, placed on slides, and left to dry in air. Photographs were taken and the total length of the vessels was measured as described."}, "[4]": {"system": "MDA-MB-231 cells", "experiment": "HB-19 entry in MDA-MB-231 cells, immunofluorescence", "format": "cell-based, human", "conditions": "5 µM HB-19/Btn, 1 hour"}, "[5]": {"system": "athymic nude mice", "conditions": "mouse, in vivo", "protocol": "Inhibitory action of HB-19 was tested against established human breast carcinoma xenografts in the athymic nude mice. For this purpose, mice were inoculated subcutaneously with MDA-MB-231 or MDA-MB-435 cells that proliferate into palpable tumors in 2 weeks. Tumor bearing mice were then treated with HB-19 (Figure 8A, B) or control antitumoral reagents such as tamoxifen and 5-fluouracil (5-FU). The mice were administered 3 times per week with various drugs, during which time tumor-volume was measured by a caliper every third or fourth day. At the end of experiment, tumor-bearing mice were sacrificed, blood was collected for analysis, and the liver, lungs and spleen were removed for histological analysis.\n4-week old female athymic nude Mice (Janvier, Le Genest St Isle, France) were injected subcutaneously in the right flank (MDA-MB-231) or in the mammary fat pad (MDA-MB-435) in 0.1 ml PBS. When the tumor reached about 40 mm^3, the mice were separated randomly in several groups. Administration of HB-19 in PBS (5 mg/kg body weight) was either by intraperitoneal, subcutaneous or peritumoral injections three times per week. Tumor volume was measured along two major axes with calipers. Tumor volume (mm^3) was calculated as follows: V = 4/3×π×R1 ^2×R2, where R1 is radius 1, R2 is radius 2 and R1<R2."}}, "data": [{"substance": "pseudo-tripeptide Lysψ(CH2N)-Pro-Arg coupled to a template (H2NLys-Lys-Lys-Gly-Pro-Lys-Glu-Lys-AhxCONH2) [HB-19]", "values": [{"measurement": "reduction of colony-forming capacity", "setting": "[1]; 1 µM HB-19, triplicate, colonies >50 µm, 10–21 days", "value": 50, "unit": "%"}, {"measurement": "colony formation", "setting": "[1]; 5 µM HB-19, MDA-MB-231", "value": "reduced markedly"}, {"measurement": "reduction of colony-forming capacity", "setting": "[1]; HB-19 0.1, 0.5 and 1 µM, anti-nucleolin mAb MS-3 0.1 µM", "value": "reduced significantly"}, {"measurement": "prevention of HB-19/Btn binding", "setting": "[2]", "value": "prevented by the excess HB-19"}, {"measurement": "relative percent inhibition of angiogenesis", "setting": "[3]; 0.4 nmol HB-19 (10 µM, 40 µl)", "value": 27, "unit": "%"}, {"measurement": "relative percent inhibition of angiogenesis", "setting": "[3]; 0.8 nmol HB-19 (20 µM, 40 µl)", "value": 36, "unit": "%"}, {"measurement": "relative percent inhibition of angiogenesis", "setting": "[3]; 2 nmol HB-19 (50 µM, 40 µl)", "value": 51, "unit": "%"}, {"measurement": "blood vessel branching and development", "setting": "[3]; HB-19 10, 20 and 50 µM", "value": "impaired significantly blood vessel branching and development in a dose-dependent manner"}, {"measurement": "internalization and subcellular localization", "setting": "[4]; 37°C", "value": "internalized and is concentrated in the cytoplasm without translocation into the nucleus"}, {"measurement": "internalization at 20°C", "setting": "[4]; 20°C", "value": "remains attached to the cell surface without entering the cytoplasm"}, {"measurement": "effect on body weight and blood cell counts", "setting": "[5]", "value": "no effect on body weight and on blood cell counts"}, {"measurement": "effect on tissues at autopsy", "setting": "[5]", "value": "no apparent effect on various tissues compared to control mice"}]}]}
